Experimental data published in PMC11323011, “Combatting Antibiotic-Resistant Staphylococcus aureus: Discovery of TST1N-224, a Potent Inhibitor Targeting Response Regulator VraRC, through Pharmacophore-Based Screening and Molecular Characterizations” (Journal of Chemical Information and Modeling, 2024).

Biological target: T1, VraRC (C-terminal DNA-binding domain of response regulator VraR) (Staphylococcus aureus, UniProt Q7A4R9)
T1 construct: residues 138-209), C-terminal His-tag
Assay: LSPR (VraRC immobilized on NTA chip, […] fit); supported by 1H-15N HSQC NMR titration and FP inhibition of DNA binding (IC50 […])

T1 sequence (Q7A4R9 138-209): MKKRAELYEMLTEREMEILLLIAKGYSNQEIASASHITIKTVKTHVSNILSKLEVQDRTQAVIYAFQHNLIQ

TST1N-224
Kd: 23.4 ± 1.2 µM
